Assay results taken from patent US20250127754A1, “Pharmaceutical Application of Dimyricetin-yl-diselenide in Atherosclerosis” (Shanghai Spark Pharmaceutical Co., Ltd., priority 2023, published 2025).
“Also recorded” adds a separate entry of the source.

How the values were obtained:
Type in all cases: in vivo
ApoE−/− mice [1] = test: Blood lipids (TG, TC, HDL-C, LDL-C) in plasma, high-fat diet atherosclerosis model; set-up: TG / TC / HDL-C / LDL-C: unit not given here; settings: for Effect on LDL-c (in words) / Effect on TC (in words): compared to the model group
Method: (§1) Upon arrival, ApoE−/− mice were acclimatized to the experimental facility for 3 days. After an overnight fast (12 hours), blood samples were collected to measure baseline levels of serum lipids (TC, TG, HDL-C, LDL-C) and LDH. Control mice were fed a regular diet, while the remaining mice were fed a high-fat diet for 18 weeks. The regular diet contained 11% kcal fat and 0% cholesterol, while the high-fat diet contained 40% kcal fat and 0.21% cholesterol. At 8 weeks of high-fat feeding, the animals underwent echocardiography and blood biochemical tests. Based on their TC values, they were randomly assigned to the following groups: blank control, model control, positive control, AQ-C-a, DMS-ASD, and DMS (refer to Table 2 in Section 6.5). Drug administration continued for 10 weeks. During the experiment, the animals' appearance, behavior, and physical condition were observed, and their body weight, echocardiography, serum lipids (TC, TG, HDL-C, and LDL-C), and blood biochemistry (LDH, SOD, and MDA) were monitored. At the end of the experiment (Week 18), hearts and aortas were collected for Oil Red O staining and histopathological analysis.
(§2) Animals were fasted the night before blood collection. Blood samples were collected and anticoagulated with heparin to prepare plasma for the detection of TG, TC, HDL-C, LDL-c, and LDH. Blood was collected at six time points: Week 0, Week 8, Week 10, Week 12, Week 16, and Week 18. SOD and MDA levels were measured at Week 16 and Week 18.

ApoE−/− mice [2] = test: Plasma LDH content, high-fat diet atherosclerosis model; set-up: LDH: unit not given here
Source text: Upon arrival, ApoE−/− mice were acclimatized to the experimental facility for 3 days. […] Control mice were fed a regular diet, while the remaining mice were fed a high-fat diet for 18 weeks. […] At 8 weeks of high-fat feeding, the animals underwent echocardiography and blood biochemical tests. […] Drug administration continued for 10 weeks. During the experiment, the animals' appearance, behavior, and physical condition were observed, and their body weight, echocardiography, serum lipids (TC, TG, HDL-C, and LDL-C), and blood biochemistry (LDH, SOD, and MDA) were monitored. At the end of the experiment (Week 18), hearts and aortas were collected for Oil Red O staining and histopathological analysis. Animals were fasted the night before blood collection. Blood samples were collected and anticoagulated with heparin to prepare plasma for the detection of TG, TC, HDL-C, LDL-c, and LDH.

ApoE−/− mice [3] = test: Plasma SOD and MDA, high-fat diet atherosclerosis model; set-up: MDA: unit not given here; settings: QD: Atorvastatin 20 mg/kg P.O., AQ-C-a 300 mg/kg P.O., DMS-ASD 300 mg/kg P.O., DMS 20 mg/kg SC
Method: as §1, §2

ApoE−/− mice [4] = test: Aortic fat plaque examination (oil red O staining); settings: for Effect on percentage of aortic plaque (in words): end of 18th week, compared with the model group; for % Patch area (aortic plaque): week 18, oil red staining of aorta, 10 weeks QD: Atorvastatin 20 mg/kg P.O., AQ-C-a 300 mg/kg P.O., DMS-ASD 300 mg/kg P.O., DMS 20 mg/kg SC
Method: as §1
Aortic oil red O staining was performed. The experimental endpoint was set at Week 10 post-treatment. After euthanasia, the aorta was collected from the aortic arch to the iliac artery and subjected to oil red O staining to analyze the accumulation of fat plaques in the aorta.

ApoE−/− mice [5] = test: Heart weight and heart weight index (tibial length corrected); settings: 10 weeks QD: Atorvastatin 20 mg/kg P.O., AQ-C-a 300 mg/kg P.O., DMS-ASD 300 mg/kg P.O., DMS 20 mg/kg SC; for Heart: heart weight at end of experiment (week 18)
Method: At the experimental endpoint, hearts and tibias were collected. The heart was weighed and its weight index was calculated using tibial length for correction, with the formula: Heart Index=Heart Weight (g)/Tibial Length (cm)×100%. The heart was fixed in 4% PFA and subjected to HE staining to evaluate fat plaques in the outflow tract.

ApoE−/− mice [6] = test: Body weight, high-fat diet atherosclerosis model; settings: HFD-fed ApoE−/− mice, compared with control group; FIG. 1
Method: as §1
All animals were given medicine […] once a day during the medication period;

[7] = week 0, baseline before HFD and dosing, fasted plasma, mean±standard error
[8] = week 8 of HFD, before start of dosing, fasted plasma
[9] = week 10 of HFD (2 weeks dosing), QD: Atorvastatin 20 mg/kg P.O., AQ-C-a 300 mg/kg P.O., DMS-ASD 300 mg/kg P.O., DMS 20 mg/kg SC
[10] = week 12 of HFD (4 weeks dosing), QD: Atorvastatin 20 mg/kg P.O., AQ-C-a 300 mg/kg P.O., DMS-ASD 300 mg/kg P.O., DMS 20 mg/kg SC
[11] = week 16 of HFD (8 weeks dosing), QD: Atorvastatin 20 mg/kg P.O., AQ-C-a 300 mg/kg P.O., DMS-ASD 300 mg/kg P.O., DMS 20 mg/kg SC
[12] = week 18 of HFD (10 weeks dosing), QD: Atorvastatin 20 mg/kg P.O., AQ-C-a 300 mg/kg P.O., DMS-ASD 300 mg/kg P.O., DMS 20 mg/kg SC

## Dimyricetin-yl-diselenide [DMS]
ApoE−/− mice [1]
  Effect on LDL-c (in words): trend of reducing; also recorded: inhibiting the increase
  Effect on TC (in words): trend of reducing; also recorded: inhibiting the increase
ApoE−/− mice [1]; [7]
  HDL-C: 1.63 ± 0.12
  LDL-C: 6.07 ± 0.19
  TC: 11.84 ± 0.85
  TG: 1.99 ± 0.14
ApoE−/− mice [1]; [8]
  HDL-C: 1.38 ± 0.15
  LDL-C: 22.09 ± 1.86
  TC: 28.69 ± 2.34
  TG: 1.26 ± 0.07
ApoE−/− mice [1]; [9]
  HDL-C: 1.44 ± 0.07
  LDL-C: 23.38 ± 1.46
  TC: 30.95 ± 1.95
  TG: 2.14 ± 0.1
ApoE−/− mice [1]; [10]
  HDL-C: 1.44 ± 0.07
  LDL-C: 23.38 ± 1.46
  TC: 32.35 ± 1.96
  TG: 2.29 ± 0.2
ApoE−/− mice [1]; [11]
  HDL-C: 2.27 ± 0.15
  LDL-C: 21.1 ± 1.23
  TC: 27.78 ± 1.36
  TG: 2.71 ± 0.35
ApoE−/− mice [1]; [12]
  HDL-C: 2.1 ± 0.19
  LDL-C: 15.94 ± 1.32
  TC: 20.92 ± 1.78
  TG: 1.27 ± 0.06
ApoE−/− mice [2]; 18th week, compared to the model group, P<0.05
  Effect on plasma LDH (in words): significant reductions; also recorded: inhibiting the increase
ApoE−/− mice [2]; [7]
  LDH: 1083.25 ± 375.4
ApoE−/− mice [2]; [8]
  LDH: 1022.5 ± 112.95
ApoE−/− mice [2]; [9]
  LDH: 401.5 ± 22.95
ApoE−/− mice [2]; [10]
  LDH: 368.5 ± 26.82
ApoE−/− mice [2]; [11]
  LDH: 361.88 ± 20.78
ApoE−/− mice [2]; [12]
  LDH: 719 ± 81.08
ApoE−/− mice [3]; week 16 (8 weeks dosing)
  MDA: 7.19 ± 1.15
  SOD: 1.06 ± 0.14 U/mL
ApoE−/− mice [3]; week 18 (10 weeks dosing)
  MDA: 6.08 ± 0.50
  SOD: 0.87 ± 0.03 U/mL
ApoE−/− mice [4]
  Effect on percentage of aortic plaque (in words): statistically significant compared with the model group; also recorded: reducing the area
  % Patch area (aortic plaque): 8.43 ± 0.95 %
ApoE−/− mice [5]
  Heart: 0.169 ± 0.010 g
ApoE−/− mice [5]; heart weight/tibial length, week 18
  Cardiac weight index: 0.095 ± 0.006 g/cm
ApoE−/− mice [6]
  Effect on body weight (in words): stabilized from the 10th to 11th week and overlapped with the control group's weight curve by the 14th week; also recorded: inhibiting the increase

## CC(C)c1c(C(=O)Nc2ccccc2)c(-c2ccccc2)c(-c2ccc(F)cc2)n1CC[C@@H](O)C[C@@H](O)CC(=O)O [Atorvastatin, reference compound]
ApoE−/− mice [1]
  Effect on LDL-c (in words): significantly reduced
  Effect on TC (in words): significantly reduced
ApoE−/− mice [1]; [7]
  HDL-C: 1.53 ± 0.15
  LDL-C: 5.63 ± 0.34
  TC: 10.12 ± 0.84
  TG: 1.79 ± 0.14
ApoE−/− mice [1]; [8]
  HDL-C: 1.36 ± 0.13
  LDL-C: 22.23 ± 1.6
  TC: 28.87 ± 2.19
  TG: 1.35 ± 0.17
ApoE−/− mice [1]; [9]
  HDL-C: 1.51 ± 0.06
  LDL-C: 16.31 ± 0.92
  TC: 22.38 ± 1.25
  TG: 2.31 ± 0.18
ApoE−/− mice [1]; [10]
  HDL-C: 1.59 ± 0.09
  LDL-C: 20.24 ± 2
  TC: 27.29 ± 2.61
  TG: 2.2 ± 0.13
ApoE−/− mice [1]; [11]
  HDL-C: 2.53 ± 0.12
  LDL-C: 14.32 ± 1.08
  TC: 19.14 ± 1.34
  TG: 1.99 ± 0.2
ApoE−/− mice [1]; [12]
  HDL-C: 2.5 ± 0.18
  LDL-C: 13.87 ± 1.51
  TC: 18.89 ± 2.11
  TG: 1.51 ± 0.09
ApoE−/− mice [2]; [7]
  LDH: 948.67 ± 117.19
ApoE−/− mice [2]; [8]
  LDH: 1176.67 ± 142.27
ApoE−/− mice [2]; [9]
  LDH: 620 ± 62.03
ApoE−/− mice [2]; [10]
  LDH: 422.67 ± 50.59
ApoE−/− mice [2]; [11]
  LDH: 384 ± 25.93
ApoE−/− mice [2]; [12]
  LDH: 1384.67 ± 191.24
ApoE−/− mice [3]; week 16 (8 weeks dosing)
  SOD: 0.87 ± 0.09 U/mL
ApoE−/− mice [3]; week 18 (10 weeks dosing)
  SOD: 0.99 ± 0.09 U/mL
ApoE−/− mice [4]
  Effect on percentage of aortic plaque (in words): significantly reduced
  % Patch area (aortic plaque): 6.86 ± 1.21 %
ApoE−/− mice [5]
  Heart: 0.192 ± 0.009 g
ApoE−/− mice [6]
  Effect on body weight (in words): significantly greater than those in the control group
